US20090270371A1, “QUINOLINE DERIVATIVES USEFUL IN THE TREATMENT OF MGLUR5 RECEPTOR-MEDIATED DISORDERS” (priority 2005, published 2009)

target: T1, rat mGluR5 receptors (Rattus norvegicus, UniProt P31424); assay: mGluR5 receptor binding test, rat cerebro-cortical membrane preparation, [3H]-M-MPEP; details: affinity for rat mGluR5 receptors; [3H]-M-MPEP (2 nM) radioligand
T1 construct: rat cerebro-cortical membrane preparation was used; from tissue; host or cells: rat cerebral cortex membranes
Protocol: The mGluR5 receptor binding was determined according to the modified method of Gasparini et. al. (Bioorg. Med. Chem. Lett., 2000, 12, 407). Based on the high homology between the human and rat mGluR5 receptors, rat cerebro-cortical membrane preparation was used to determine the binding characteristics of the reference compounds and novel compounds to the rat mGluR5. The A18 cell line expressing hmGluR5a (purchased from Euroscreen) was used to determine binding characteristics of the chemical compounds to the human mGluR5a receptor. [^3H]-M-MPEP (2 nM) was used as radioligand. The nonspecific binding was determined in the presence of 10 μM M-MPEP.

T1 sequence (P31424 21-1203): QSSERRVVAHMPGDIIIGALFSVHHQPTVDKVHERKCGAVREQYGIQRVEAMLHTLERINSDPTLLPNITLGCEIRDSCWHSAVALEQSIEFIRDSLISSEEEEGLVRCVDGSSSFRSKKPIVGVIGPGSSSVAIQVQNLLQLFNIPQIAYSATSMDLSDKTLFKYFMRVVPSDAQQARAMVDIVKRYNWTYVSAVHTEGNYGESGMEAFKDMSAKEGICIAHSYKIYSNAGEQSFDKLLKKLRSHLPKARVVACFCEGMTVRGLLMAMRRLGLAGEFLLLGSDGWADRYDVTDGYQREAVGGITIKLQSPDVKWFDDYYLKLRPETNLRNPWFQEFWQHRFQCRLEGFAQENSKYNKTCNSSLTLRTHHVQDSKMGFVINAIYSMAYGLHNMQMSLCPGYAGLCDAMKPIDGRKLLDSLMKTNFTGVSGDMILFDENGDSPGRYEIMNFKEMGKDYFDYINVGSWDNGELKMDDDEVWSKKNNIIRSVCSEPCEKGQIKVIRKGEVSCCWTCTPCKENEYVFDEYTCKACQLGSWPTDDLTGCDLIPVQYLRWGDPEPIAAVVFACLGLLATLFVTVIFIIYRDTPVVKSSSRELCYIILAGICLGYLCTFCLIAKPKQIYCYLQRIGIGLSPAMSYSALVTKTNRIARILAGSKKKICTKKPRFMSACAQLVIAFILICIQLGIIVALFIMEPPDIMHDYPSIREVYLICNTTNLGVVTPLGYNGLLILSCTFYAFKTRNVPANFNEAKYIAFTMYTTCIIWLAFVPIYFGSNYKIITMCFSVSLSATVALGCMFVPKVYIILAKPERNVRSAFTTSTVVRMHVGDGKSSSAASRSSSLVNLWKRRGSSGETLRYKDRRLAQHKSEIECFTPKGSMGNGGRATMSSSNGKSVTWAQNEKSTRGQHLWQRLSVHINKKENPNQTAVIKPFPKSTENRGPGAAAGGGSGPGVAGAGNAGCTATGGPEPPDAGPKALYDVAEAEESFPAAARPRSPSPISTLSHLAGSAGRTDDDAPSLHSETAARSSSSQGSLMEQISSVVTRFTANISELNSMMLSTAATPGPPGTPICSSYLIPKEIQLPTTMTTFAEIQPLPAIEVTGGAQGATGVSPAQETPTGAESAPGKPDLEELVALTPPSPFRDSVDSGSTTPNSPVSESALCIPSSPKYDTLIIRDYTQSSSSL

Cc1ccc2ncc(S(=O)(=O)c3ccc(C)c(C)c3)c(N3CCC(C)CC3)c2c1 [Compound 161] and Cc1ccc2ncc(S(=O)(=O)c3ccc(C)c(F)c3)c(N3CCC(C)CC3)c2c1 [Compound 165] cannot be ordered by Ki: < 200 nM for the first, < 200 nM for the second.

COc1ccc(S(=O)(=O)c2cnc3ccc(C)cc3c2N2CCC(C)CC2)cc1Cl [Compound 162] and Cc1ccc2ncc(S(=O)(=O)c3ccc(C)c(Cl)c3)c(N3CCC(C)CC3)c2c1 [Compound 167] cannot be ordered by Ki: < 200 nM for the first, < 200 nM for the second.

Cc1ccc2ncc(S(=O)(=O)c3cccc(Cl)c3)c(N3CCC(C)CC3)c2c1 [Compound 163] and Cc1ccc2ncc(S(=O)(=O)c3ccc(F)c(Cl)c3)c(N3CCC(C)CC3)c2c1 [Compound 169] cannot be ordered by Ki: < 200 nM for the first, < 200 nM for the second.

Cc1ccc2ncc(S(=O)(=O)c3ccc(Cl)c(Cl)c3)c(N3CCC(C)CC3)c2c1 [Compound 164] and CC1CCN(c2c(S(=O)(=O)c3ccc(Cl)c(Cl)c3)cnc3cc(F)ccc23)CC1 [Compound 176] cannot be ordered by Ki: < 200 nM for the first, < 200 nM for the second.

First: Cc1ccc2ncc(S(=O)(=O)c3ccc(C#N)cc3)c(N3CCC(C)CC3)c2c1 [Compound 166]
Second: CC1CCN(c2c(S(=O)(=O)c3ccc(C#N)cc3)cnc3cc(F)ccc23)CC1 [Compound 180]
The Ki of the first is higher: 200 to 500 nM for the first, < 200 nM for the second. The second binds more tightly here.

Cc1cc(C)cc(S(=O)(=O)c2cnc3ccc(C)cc3c2N2CCC(C)CC2)c1 [Compound 168] and Cc1cc(C)cc(S(=O)(=O)c2cnc3cc(F)ccc3c2N2CCC(C)CC2)c1 [Compound 184] fall in the same range of Ki: 200 to 500 nM for the first, 200 to 500 nM for the second.

First: CC1CCN(c2c(S(=O)(=O)c3cc(F)cc(F)c3)cnc3cc(F)ccc23)CC1 [Compound 170]
Second: CC1CCN(c2c(S(=O)(=O)c3cc(F)cc(F)c3)cnc3cc(Cl)ccc23)CC1 [Compound 189]
The Ki of the first is higher: 200 to 500 nM for the first, < 200 nM for the second. The second binds more tightly here.

Compared with Cc1ccc(S(=O)(=O)c2cnc3cc(F)ccc3c2N2CCC(C)CC2)cc1 [Compound 171], CC1CCN(c2c(S(=O)(=O)c3ccc(F)cc3)cnc3cc(F)ccc23)CC1 [Compound 172] is higher in Ki: < 200 nM for the first, 200 to 500 nM for the second.

CC1CCN(c2c(S(=O)(=O)c3ccccc3)cnc3cc(F)ccc23)CC1 [Compound 173] and CC1CCN(c2c(S(=O)(=O)c3ccc(Cl)cc3)cnc3cc(F)ccc23)CC1 [Compound 174] cannot be ordered by Ki: < 200 nM for the first, < 200 nM for the second.

COc1cccc(S(=O)(=O)c2cnc3cc(F)ccc3c2N2CCC(C)CC2)c1 [Compound 175] and COc1ccc(S(=O)(=O)c2cnc3cc(F)ccc3c2N2CCC(C)CC2)cc1 [Compound 185] cannot be ordered by Ki: < 200 nM for the first, < 200 nM for the second.

CC1CCN(c2c(S(=O)(=O)c3cc(Cl)cc(Cl)c3)cnc3cc(F)ccc23)CC1 [Compound 177] and CC1CCN(c2c(S(=O)(=O)c3cc(Cl)cc(Cl)c3)cnc3cc(Cl)ccc23)CC1 [Compound 188] cannot be ordered by Ki: < 200 nM for the first, < 200 nM for the second.

Cc1ccc(S(=O)(=O)c2cnc3cc(F)ccc3c2N2CCC(C)CC2)cc1F [Compound 178] and Cc1ccc(S(=O)(=O)c2cnc3cc(F)ccc3c2N2CCC(C)CC2)cc1Cl [Compound 181] cannot be ordered by Ki: < 200 nM for the first, < 200 nM for the second.

CC1CCN(c2c(S(=O)(=O)c3cccc(C#N)c3)cnc3cc(F)ccc23)CC1 [Compound 179] and CC1CCN(c2c(S(=O)(=O)c3cccc(C#N)c3)cnc3cc(Cl)ccc23)CC1 [Compound 190] cannot be ordered by Ki: < 200 nM for the first, < 200 nM for the second.

COc1ccc(S(=O)(=O)c2cnc3cc(F)ccc3c2N2CCC(C)CC2)cc1OC [Compound 182] and Cc1ccc(S(=O)(=O)c2cnc3cc(F)ccc3c2N2CCC(C)CC2)cc1C [Compound 183] cannot be ordered by Ki: < 200 nM for the first, < 200 nM for the second.

CC1CCN(c2c(S(=O)(=O)c3ccc(F)c(F)c3)cnc3cc(F)ccc23)CC1 [Compound 186] and CC1CCN(c2c(S(=O)(=O)c3ccc(F)c(Cl)c3)cnc3cc(F)ccc23)CC1 [Compound 187] cannot be ordered by Ki: < 200 nM for the first, < 200 nM for the second.

Cc1ccc(S(=O)(=O)c2cnc3cc(Cl)ccc3c2N2CCC(C)CC2)cc1 [Compound 191] and CC1CCN(c2c(S(=O)(=O)c3ccc(F)cc3)cnc3cc(Cl)ccc23)CC1 [Compound 192] cannot be ordered by Ki: < 200 nM for the first, < 200 nM for the second.

COc1ccc(S(=O)(=O)c2cnc3cc(Cl)ccc3c2N2CCC(C)CC2)cc1 [Compound 193] gave a Ki of 200 to 500 nM.
